The nature of series [1]: Acute toxicity in the mouse. Type of series: in vivo. The note with it: female Swiss mice. The procedure:
Acute toxicity in the mouse
The acute toxicity of compound No. 6 administered intravenously (I.V.) and orally (P.O.) was determined in female mice of the Swiss strain weighing from 25 to 27 g.
Compound No. 6 was administered in aqueous solution in a concentration of 0.4% intravenously and in a concentration of 1% and 4% orally.

The subject of series [2] is spontaneous heart rate. Briefly: Bradycardiac activity on the conscious dog. Type of series: in vivo, dog (mongrel). The note with it: 4 mg/kg I.V.; for Average heart beat after substance injected: 9 dogs, before injection 132 ± 9, (S) significant to p = 0,05. The procedure: Bradycardiac activity on the conscious dog
The dogs used were male and female mongrels weighing from 15 to 20 kg. Their bypass electrocardiograms (D2) were recorded and their heart rate (FC) was measured with a cardiotachometer.
The animals were not used to tests and consequently their heart rate was relatively high, 130 beats per minute on average.
3 control measurements of the heart rate were made during the hour before intravenous injection of the substance under study, and 3 further measurements were made 5 minutes, 20 minutes and 35 minutes after administration.

In series [3] the test system is rhythm disorders induced by aconitine. In words: Anti-arrhythmic activity in the guinea-pig (aconitine-induced arrhythmia). The series is classed as in vivo. Conditions: for Average time for arrhythmia to appear, PES (polymorphic extrasystoles) / Average time for arrhythmia to appear, VT (ventricular tachycardia) / Average time for arrhythmia to appear, MTV (multifocal ventricular tachycardia) / Average time for arrhythmia to appear, VTB (ventricular tachycardia bursts): 6 guinea pigs; for Average time for arrhythmia to appear, PES (polymorphic extrasystoles): controls 27 ± 2; for Average time for arrhythmia to appear, VT (ventricular tachycardia): controls 30 ± 2; for Average time for arrhythmia to appear, MTV (multifocal ventricular tachycardia): controls 41 ± 2; for Average time for arrhythmia to appear, VTB (ventricular tachycardia bursts): controls 63 ± 4; for Delay of rhythm disorders induced by aconitine: I.V., guinea-pig, compared with amiodarone. As to the method: Anti-arrhythmic activity in the guinea-pig
Reference: Experimental evaluation of anti-arrhythmic drugs in the guinea-pig. GUIDICELLI, WITCHITZ, LARNO, BOISSIER, Biomedecine, 1973, 19, 308-313.
Male and female guinea-pigs were used, weighing from 600 to 800 g and anesthetised with urethane (1.25 g/kg/I.P.), tracheotomised and kept under artificial respiration. The electrocardiogram (D2) was recorded.
Arrhythmia was produced by perfusion at the rate of 0.5 ml/min of an aqueous solution of aconitine nitrate (0.15 mg/ml) in the jugular vein. Measurements were made of the time before the following rhythm disturbances appeared:
Polymorphic extrasystoles (PES),
Ventricular tachycardia (VT),
Multifocal ventricular tachycardia (MVT),
Ventricular tachycardia bursts (VTB),
that is a sequence of ventricular complexes of fixed frequency but with regular increasing and decreasing amplitude.
The following substances were used:
Amiodarone hydrochloride for comparison.
The substances were intravenously injected immediately before perfusion with aconitine had started.

Series [4] concerns tachycardia produced by isoprenaline stimulation of the sympathicoβ receptors of the heart. In words: Sympathico-inhibiting activity in the conscious dog (isoprenaline tachycardia). The series is classed as in vivo, dog (mongrel). The note with it: for Effect of isoprenaline after substance injected: 4 mg/kg I.V., 6 dogs, before injection 114 ± 9 (controls), (S) significant to P = 0,05. The procedure:
Sympathico-inhibiting activity in the conscious dog
The dogs used were male and female mongrels weighing from 15 to 20 kg. The animals were not anaesthetised. Their electrocardiograms (D2) and heart rates were measured.
Short bouts of tachycardia, approx. 1 minute long, were produced by intravenously injecting a solution of isoprenaline in doses of 0.25 Y/kg. The injections were repeated every 15 minutes until the increase in heart rate had been reproduced in a satisfactory manner.
Next, the substance under study was intravenously injected and 3 additional measurements of the isoprenaline tachycardia were made 5 minutes, 20 minutes and 35 minutes after the product under study had been administered.

Structures are written as SMILES. Structures can show the parent of a compound that is named as a salt.

Consider `CCCCN(CCCC)CCCOc1c(C)cc(C(=O)c2oc3ccccc3c(=O)c2C)cc1C` [Compound No. 6, 2-[4-(3-N,N-dibutylaminopropoxy) 3,5-dimethylbenzoyl] 3-methyl chromone hydrochloride], for which the Lethal dose in series [1] (I.V., aqueous solution 0.4%) is given as approximately 30 mg/kg; in series [1] (P.O., aqueous solution 1% and 4%), approximately 1200 mg/kg.

For `CCCCN(CCCC)CCCOc1c(C)cc(C(=O)c2cc(=O)c3ccccc3o2)cc1C` [Compound No. 1, 2-[4-(3-N,N-dibutylaminopropoxy) 3,5-dimethylbenzoyl] chromone hydrochloride], the “Effect on spontaneous heart rate” value in series [2] (conscious dog) is “significantly lowers the spontaneous heart rate”. Also, the “Average heart beat after substance injected” value worked out at 114 beats/min in series [2] (5 min, spread ±10); 109 beats/min in series [2] (20 min, spread ±8); 107 beats/min in series [2] (35 min, spread ±8). For the same compound, in series [3] (2 mg/kg I.V.), the “Average time for arrhythmia to appear, PES (polymorphic extrasystoles)” value (shortened to “Average time … (polymorphic extrasystoles)”) came to 63 ± 4 s. Besides, in series [3] (2 mg/kg I.V.), the “Average time for arrhythmia to appear, VT (ventricular tachycardia)” value (“Average time … (ventricular tachycardia)” below) is 79 ± 9 s. Besides, in series [3] (2 mg/kg I.V.), the “Average time for arrhythmia to appear, MTV (multifocal ventricular tachycardia)” value stood at 94 ± 10 s. The “Average time for arrhythmia to appear, VTB (ventricular tachycardia bursts)” value (from here on “Average time … (ventricular tachycardia bursts)”) in series [3] (2 mg/kg I.V.) came to 139 ± 11 s. Further, the “Delay of rhythm disorders induced by aconitine” value in series [3] is on record as “delay rhythm disorders induced by aconitine to a greater extent than the conventional reference compound, amiodarone”. Further, the “Effect of isoprenaline after substance injected” value came out at 68 beats per minute in series [4] (5 min, spread ±12); 89 beats per minute in series [4] (20 min, spread ±10); 97 beats per minute in series [4] (35 min, spread ±10). Further, the Sympathico-inhibiting activity entry in series [4] (isoprenaline tachycardia, conscious dog) was “can moderate tachycardia produced by isoprenaline stimulation”.

Turning to `CCCCN(CCCC)CCOc1c(C)cc(C(=O)c2cc(=O)c3ccccc3o2)cc1C` [Compound No. 7, 2-[4-(2-N,N-dibutylaminoethoxy) 3,5-dimethylbenzoyl] chromone hydrochloride], in series [3] (4 mg/kg I.V.), the “Average time … (polymorphic extrasystoles)” value stood at 36 ± 4 s; the “Average time … (ventricular tachycardia)” value amounted to 55 ± 8 s; the “Average time for arrhythmia to appear, MTV (multifocal ventricular tachycardia)” value came out at 77 ± 9 s; the “Average time … (ventricular tachycardia bursts)” value was found to be 145 ± 10 s. Also, in series [3], the “Delay of rhythm disorders induced by aconitine” value is given as “delay rhythm disorders induced by aconitine to a greater extent than the conventional reference compound, amiodarone”.

Consider `CCCCc1oc2ccccc2c1C(=O)c1cc(I)c(OCCN(CC)CC)c(I)c1` [Amiodarone (hydrochloride), Amiodarone hydrochloride, reference compound], for which, in series [3] (4 mg/kg I.V.), the “Average time … (polymorphic extrasystoles)” value turned out to be 32 ± 3 s; the “Average time … (ventricular tachycardia)” value was found to be 44 ± 6 s; the “Average time for arrhythmia to appear, MTV (multifocal ventricular tachycardia)” value was 59 ± 5 s; the “Average time … (ventricular tachycardia bursts)” value was determined as 94 ± 8 s.

(Values after patent publication US4220645A, “Chromone derivatives” (Thea (Therapeutique et Applications) SA, priority 1977, dated 1980).)
